From patent US4321376A, “Neplanocin-B and -F” (Toyo Jozo Kabushiki Kaisha, priority 1979, dated 1982)

Key:
mice = test: Acute toxicity, intraperitoneal administration to mice; assay type: in vivo, mouse; conditions: 100 mg/kg
Anti-depressant activity = conditions: no test details given
Solubility = assay type: physicochemical; conditions: for Solubility: insoluble in: solvents in which insoluble; for Solubility: soluble in: solvents in which soluble
Nature (basicity) = assay type: physicochemical

| SMILES | Acute toxicity: mortalities (mice) | anti-depressant activity (Anti-depressant activity) | Solubility: insoluble in (Solubility) | Solubility: soluble in (Solubility) | Nature (Nature (basicity)) |
| --- | --- | --- | --- | --- | --- |
| Nc1ncnc2c1ncn2C1C(O)C2OC2(CO)C1O (stereo not drawn) [neplanocin B] | No mortalities were observed | has an anti-depressant activity | Insoluble: ethyl acetate, chloroform, benzene and diethyl ether | Soluble: water and dimethyl sulphoxide | weakly basic |
| Nc1ncnc2c1ncn2C1C(O)C=C(CO)C1O (stereo not drawn) [neplanocin F] | No mortalities were observed |  | Insoluble: ethyl acetate, chloroform, benzene and diethyl ether | Soluble: water, dimethyl sulphoxide and acetic acid | weakly basic |
